In patent publication US8618283B2, “Ligand libraries for screening GPCRs” (Cambridge Enterprise Limited, priority 2005, dated 2013):

System: ET-A and/or ET-B receptor
Assay: contraction of human aortic rings in organ culture (agonist assay)
Conditions: increasing concentrations 0.01 nM to 100 nM, at top concentration, 37° C.
Method: Endothelin-1 is a peptide which signals through the ET-A and/or ET-B receptor to cause vasoconstriction. To determine whether compounds of the invention are agonists at ET-A and/or ET-B, rings of human aorta (obtained from transplant donor hearts) can be put into organ culture. Rings are then exposed either to increasing concentrations of Endothelin-1 (from 0.01 nM to 100 nM), or to increasing concentrations of the test compound(s) (from about 0.1 nM to about 10 mM) at 37° C., raising the concentration of the appropriate agent approximately every 5 minutes. Throughout the experiment the contraction of the aortic ring is measured by a strain gauge designed and commercially available for such a purpose. […] If the compound of the invention is an agonist at the endothelin receptors, then the force exerted on the strain guage will also be higher (at least at certain concentrations) than prior to addition of the test compound.

force exerted on the strain gauge versus prior to addition: significantly higher
Substance: Endothelin-1
